Measured values from patent US7820400B2, “Tumor-associated marker” (The Trustees of Columbia University in the City of New York, priority 2000, dated 2010).

Tested on: SK-BR-3 cells
Assay: Release of TIP-2 antigen into culture media of Taxol-treated cells (Western blot)
Type: cell-based, human
Conditions: SK-BR-3 cells treated with increasing amounts of Taxol (5.5-88 uM)
Description: The release of TIP-2 antigen into cell culture media of SK-BR-3 cells treated with different concentration of Taxol. The lines are as follows (from left to right): 1) SK-BR-3 cell lysate prepared form approximately 70,000 cells; 2) empty lane; 3) Taxol, 88 uM added to 35 mm tissue plate containing approximately 250,000 cells; 4) same with Taxol, 44 uM; 5) same with Taxol, 22 uM; 7) same with Taxol, 11 uM; 8) same with Taxol, 5.5 uM; 9) cell lysate prepared from cells which were not treated with Taxol; 10) lysate prepared from the residual dead cells' remnants after treatment with Taxol, 88 uM.
Using a specific fusion partner cell line MFP-2 were developed two fully human antibodies to breast and prostate cancer-associated antigens. Both antigens were reactive with a 42 kDa-protein target, which was identified through SEREX technology as Ga-interacting protein, C terminus or Tax interacting protein, clone 2. This protein is specifically overexpressed in three human breast cancer cell lines, SK-BR-3, MCF-7 and ZR-1-75, has very low if any expression level in human prostate cancer lines, PC-3, LNCaP and DU-145 and no expression in two human fibroblast cell lines. […] Normal breast epithelia were negative for staining with anti-TIP-2 antibodies as was benign prostate hyperplasia (BPH) tissue. […]

`CC(=O)O[C@H]1C(=O)[C@@]2(C)[C@H]([C@H](OC(=O)c3ccccc3)[C@]3(O)C[C@H](OC(=O)[C@H](O)[C@@H](NC(=O)c4ccccc4)c4ccccc4)C(C)=C1C3(C)C)[C@]1(OC(C)=O)CO[C@@H]1C[C@@H]2O` [Taxol] was tested, and the “release of TIP-2 antigen into the media” value was “TIP-2 antigen released into the media in a dose dependent manner”.
